Data as given in patent publication US10105411B2, “Compositions and methods for modulating AT2R activity” (Novopyxis, Inc., priority 2014, dated 2018).
Entries after “also recorded” stand apart in the source; their conditions may differ. Where no end group is shown, it is not given here.

Tests used:
[1] = tested on: mouse HL-1 cardiomyocytes; assay: Cell index (CI) cell survival, Xcelligence Real-Time Cell Analyzer, HL-1 cells; format: cell-based; details: for increase in cell index (CI): serum starved HL-1 cells
Method: (§1) Thus, an NP-6AK agonist comprising the sequence Lys-Pro-Leu-Lys-Pro-Trp (SEQ ID NO. 2) promoted cell survival across mouse HL-1 cardiomyocytes and human smooth vascular muscle cells by acting through AT2R activation. Cell survival was assessed by measurement of cell index (CI) using a Xcelligence™ Real-Time Cell Analyzer (Westburg B V, Leusden, N L) to quantitatively determine the effect of different treatments on cell survival, adhesion, and proliferation. […] CGP42112A and the NP-6AK agonist (300 nM) increased CI of serum starved HL-1 cells in the order CGP42112A (≥14%), NP-6AK (≥25%). Increase in CI is a direct effect of AT2R activation. This was verified by addition of an AT2R antagonist, PD123319 (Sigma-Aldrich, Co. LLC, St. Louis, Mo.). In the presence of this antagonist, the cell survival otherwise observed using the NP-6AK agonist was not present.

MCL-1 [2] = assay: MCL-1 expression in HL-1 cardiomyocytes; format: cell-based, mouse; details: for effect of AT2R antagonist on NP-6AK-mediated MCL-1 upregulation: antagonist with NP-6AK agonist; for MCL-1 expression (in words): female mouse HL-1 cardiomyocytes, FIG. 1A
Description: (§2) Cells treated with the NP-6AK agonist generated higher MCL-1 upregulation relative to those treated with a partial agonist such as CGP42112A.

MCL-1 [3] = assay: MCL-1 expression in human vascular smooth muscle cells (CAVSMCs); format: cell-based; details: for effect of AT2R antagonist on NP-6AK-mediated MCL-1 upregulation: antagonist with NP-6AK agonist; for MCL-1 expression (in words): human CAVSMCs, FIG. 1B
Description: as §2

PC-12 cells = assay: Survival/viability of serum-starved PC-12 cells (MTS cell proliferation assay); format: cell-based
Method: (§3) Serum-starvation reduced survival of SH-SY5Y cells and PC-12 cells. […] Treatment of this cell line with 300 nM of NP-6AK agonist led to increased cell viability by over 30% relative to treatment with native ligand of AT2R Ang II (300 nM). […] AT2R activation by NP-6AK agonist promotes cell survival whereas AT2R activation by other ligands are harmful to it.

[4] = tested on: human smooth vascular muscle cells; assay: Cell index (CI) cell survival, Xcelligence Real-Time Cell Analyzer, human smooth vascular muscle cells; format: cell-based
Method: as §1

MCL-1 [5] = assay: MCL-1 expression in SH-SY5Y cells (immunofluorescence staining); format: cell-based
Description: The SH-SY5Y cell line is a neuronal cell line with both dopaminergic and adrenergic receptors.

SH-SY5Y cells [6] = assay: Neurite elongation in SH-SY5Y cells; format: cell-based; details: FIG. 3A
SH-SY5Y cells [7] = assay: Survival of serum-starved SH-SY5Y cells (MTS cell proliferation assay); format: cell-based; details: serum starvation
Method: as §3

[8] = tested on: primary murine embryonic cortical neurons; assay: Neuroprotection of primary cortical neurons under nutrient deprivation; format: cell-based; details: 300 nm agonist; glucose-free Locke's medium; 14 DIV; p<0.05
Method: For nutrient deprivation, primary cortical neurons (14 DIV) were incubated in glucose-free Locke's medium with or without […] NP-6AK agonist.
Ex vivo neurons were obtained and treated with an NP-6AK agonist in different conditions to assess neuroprotective properties. Normal primary murine embryonic cortical neurons in culture (14 days in vitro) were challenged with nutrient deprivation by incubation in glucose-free Locke's medium (Schnapf et al. (1990)). These cultures were then supplemented with 300 nM NP-6AK agonist or no NP-6AK agonist.

Zucker Obese (ZO) rats = assay: Zucker Obese rat diabetic/cardiovascular model, 2 weeks subcutaneous treatment; format: in vivo
Method: Zucker Obese (ZO) rats (Charles River Laboratories, Inc., Wilmington, Mass.), a diabetic animal model displaying signs of cardiovascular disease were treated for 2 weeks (dose of 0.9 mg/kg/day) via subcutaneous injection with an NP-6AK agonist and assessed for several markers of cardiovascular health including blood markers and structural parameters of the heart. Controls were ZO rats that received saline.

[9] = 0.9 mg/kg/day s.c., vs saline ZO rats

Molecule: Cc1cc(Cn2cnc3c2C[C@@H](C(=O)O)N(C(=O)C(c2ccccc2)c2ccccc2)C3)ccc1N(C)C [PD123319]
- cell survival otherwise observed using the NP-6AK agonist, in presence of the AT2R antagonist ([1]; antagonist added to NP-6AK agonist treatment): not present
- effect of AT2R antagonist on NP-6AK-mediated MCL-1 upregulation (MCL-1 [2]): MCL-1 upregulation was not observed
- effect of AT2R antagonist on NP-6AK-mediated MCL-1 upregulation (MCL-1 [2]; listed as PD): prevents NP-6AK-mediated up regulation of MCL-1
- effect of AT2R antagonist on NP-6AK-mediated MCL-1 upregulation (MCL-1 [3]): MCL-1 upregulation was not observed
- effect of AT2R antagonist on NP-6AK-mediated MCL-1 upregulation (MCL-1 [3]; listed as PD): prevents NP-6AK-mediated up regulation of MCL-1
- protective effects of the NP-6AK agonist when treated with AT2R antagonist (PC-12 cells; PC-12 cells): the protective effects of the NP-6AK agonist were lost

Molecule: AngII: native ligand of AT2R
- cell survival relative to cells treated with AT2R antagonist PD123319 (PC-12 cells; MTS assay): more detrimental

Molecule: CGP42112A
- increase in cell index (CI) ([1]; 300 nM): ≥ 14%
- MCL-1 expression (in words) (MCL-1 [2]): unable to increase MCL-1
- MCL-1 expression (in words) (MCL-1 [3]): unable to increase MCL-1
- cell survival relative to cells treated with AT2R antagonist PD123319 (PC-12 cells; MTS assay): more detrimental

Molecule: KPLKPW [NP-6AK agonist, AT2R agonist hexapeptide of the NP-6AK class]
- survival and proliferation compared with CGP42112A (300 nM) ([1]; 300 nM, cell index): significantly better survival and more proliferation
- increase in cell index (CI) ([1]; 300 nM): ≥ 25%
- survival and proliferation compared with CGP42112A (300 nM) [4]: significantly better survival and more proliferation
- higher MCL-1 expression (MCL-1 [2]; 300 nM, cardiomyocytes, FIG. 1): 45%
- MCL-1 expression (in words) (MCL-1 [2]): increases MCL-1 expression
- higher MCL-1 expression (MCL-1 [3]; 300 nM, human smooth vascular muscle cells, FIG. 1): 22%
- MCL-1 expression (in words) (MCL-1 [3]): increases MCL-1 expression
- increase in MCL-1 expression (MCL-1 [5]; 300 nM, agonist alone, 24 hours, FIG. 2): 2 fold
- MCL-1 expression after treatment with Rapamycin (MCL-1 [5]; agonist added after Rapamycin, FIG. 3B): reverses rapamycin-mediated suppression of MCL-1 expression; also recorded: able to recover MCL-1 expression
- neurite elongation (SH-SY5Y cells [6]): promotes neurite elongation
- survival rate (SH-SY5Y cells [7]): higher survival rate
- increased survival relative to treatment with 300 nM CGP42112A (PC-12 cells; MTS assay): over 70%
- survival rate (PC-12 cells; serum starvation): higher survival rate
- increased activity compared with negative controls [8]: 60%
- increased HDL on average (Zucker Obese (ZO) rats; [9]): 12%
- reduced triglycerides (fasting plasma) (Zucker Obese (ZO) rats; [9]): ~50%
- reduced urine N-acetyl-beta-A-glucosaminidase (Zucker Obese (ZO) rats; [9]): ~60%
- reduced urine protein (Zucker Obese (ZO) rats; [9]): ~68%
- Echocardiography/Strain analysis E/E (Zucker Obese (ZO) rats; male ZO rat, 0.9 mg/kg/day): 26 ± 2.1
- Echocardiography/Strain analysis MPI (Zucker Obese (ZO) rats; male ZO rat, 0.9 mg/kg/day): 0.389 ± 0.02
- Plasma Profile HDL (Zucker Obese (ZO) rats; male ZO rat, 0.9 mg/kg/day): 73 ± 2.8 mg/dL
- Plasma Profile Triglycerides (Zucker Obese (ZO) rats; male ZO rat, 0.9 mg/kg/day): 610 ± 109 mg/dL
- Urine Profile NA6 (Zucker Obese (ZO) rats; male ZO rat, 0.9 mg/kg/day): 10.9 ± 1.5 mg/dL
- Urine Profile Protein (Zucker Obese (ZO) rats; male ZO rat, 0.9 mg/kg/day): 445 ± 86.4 mg/dL
- Echocardiography/Strain analysis Circumferential Strain (Zucker Obese (ZO) rats; male ZO rat, 0.9 mg/kg/day, endocardium, short axis view): −26.11 ± 2.47
